# Assay results: US7803558B2, “Modulation of aqueous humor outflow by targeting vascular-endothelial-cadherin in Schlemm's canal cells” (The Arizona Board of Regents on behalf of the University of …, priority 2003, dated 2010)
# Where two headings read alike, the source gives them in different places.
# Assays:
# [1] = system: human Schlemm's canal (SC) cell monolayers
# Protocol: (§1) SC Cells: Human cadaveric eye tissue was obtained from Donor Network of Arizona, San Diego Lions Eye Bank or North Carolina Lions Eye Bank within 48 hours of death for whole eyes stored in moist chambers, and within 96 hours for non-transplantable corneal anterior segments stored in Optisol (Chiron Vision, Clairmont, Calif.). Human SC cells were isolated from the cadaveric eye tissue using gelatin-coated cannulas, as described previously (Stamer W D, et al Invest Opthalmol Vis Sci 1998; 39:1804-1812) or by differential dissection (O'Brien E, Invest. Opthalmol. Vis. Sci. 2000; 41:3842-3849). Cells used in perfusion studies were isolated by both methods while only cells isolated by differential dissection were used in morphology experiments. Cells were grown and maintained in Dulbecco's Modified Eagle Medium (DMEM) and maintained in humidified air containing 5% CO2 at 37° C., as described previously (Stamer W D, et al Invest Opthalmol Vis Sci 1998; 39:1804-1812). Human SC cells were seeded at 100,000 cells/cm^2onto 1-cm^2 Snapwell Filters (Snapwell; Costar, Acton, Mass.) with 0.4-μm pore diameter in 10% FBS/DMEM. Primary cultures of eight SC cell strains were isolated from eight different cadaveric eyes without a history of glaucoma and used in the present study (SC3, SC6, SC10, SC11, SC41, SC42, SC 57 and SC68).
# (§2) Transendothelial electrical resistance (TEER) of cell monolayers cultured on Snapwell filters was measured using a TEER measurement chamber (ENDOHM-24; World Precision Instruments) in conjunction with an epithelial voltohmmeter (EVOM; World Precision Instruments). Following three rinses with prewarmed 20 mM HEPES (Sigma, St. Louis, Mo.) buffered DMEM (serum-free, pH 7.4; HEPES-DMEM), filters were carefully transferred to the TEER measurement chamber filled with HEPES-DMEM. […] Pressure in the upstream compartment was generated by an elevated reservoir of HEPES-DMEM, with pressure recorded using a pressure transducer (AH 60-3002; Harvard Apparatus, Holliston, Mass.), while the downstream compartment was vented to atmospheric pressure. The rate of fluid flow through the chamber was calculated from the weight change per unit time of the reservoir measured using an isometric transducer (AH 60-2994; Harvard Apparatus). Pressure and weight data were recorded simultaneously at 30 times/sec onto hard drive of computer using a Data Acquisition System (MP100WSW; Biopac Systems, Inc., Santa Barbara, Calif.).
# (§3) Once stable TEER was achieved, a valve between the reservoir and chamber was opened to expose the upstream chamber to pressure. TEER, flow, and pressure measurements were recorded for 20 minutes to establish baseline values.
# MDCK cell monolayers [2] = system: MDCK cell monolayers
# Protocol: (§4) MDCK Cells: Madin-Darby Canine Kidney cells (MDCK), were used as a control to characterize perfusion system and for comparisons to SC monolayers. […] MDCK cells thus served as a positive control for comparisons with SC cells in subsequent experiments. MDCK Cells used in the present study were a gift from Dr. Ronald Lynch (University of Arizona) and were used between passages 14-16. Cells were grown in DMEM and maintained in humidified air containing 5% CO2 at 37° C. for at least three weeks after reaching confluence before experimentation.
# as §2
# as §3, with “values. […] The medium in the upstream chamber was then exchanged with […] HEPES-DMEM at a rate of 2.5 ml/min, and a second 10-minute baseline period was measured.” for “values.”
# [3] = system: human Schlemm's canal (SC) cell monolayers; remark: listed apart in the source
# Protocol: as §1
# as §2, with “Instruments).” for “Instruments). Following three rinses with prewarmed 20 mM HEPES (Sigma, St. Louis, Mo.) buffered DMEM (serum-free, pH 7.4; HEPES-DMEM), filters were carefully transferred to the TEER measurement chamber filled with HEPES-DMEM.”
# as §3, with “values. […] The medium in the upstream chamber was then exchanged with […] HEPES-DMEM at a rate of 2.5 ml/min, and a second 10-minute baseline period was measured.” for “values.”
# MDCK cell monolayers [4] = system: MDCK cell monolayers; remark: listed apart in the source
# Protocol: as §4
# Transendothelial electrical resistance (TEER) of cell monolayers cultured on Snapwell filters was measured using a TEER measurement chamber (ENDOHM-24; World Precision Instruments) in conjunction with an epithelial voltohmmeter (EVOM; World Precision Instruments). Following three rinses with prewarmed 20 mM HEPES (Sigma, St. Louis, Mo.) buffered DMEM (serum-free, pH 7.4; HEPES-DMEM), filters were carefully transferred to the TEER measurement chamber filled with HEPES-DMEM. […] The Snapwell filters containing the cell monolayers were then carefully placed into an Ussing-type chamber (Ussing system CHM5; World Precision Instruments, Sarasota, Fla.) filled with HEPES-DMEM and maintained at 37° C. in an air incubator for 15 minutes prior to pressure application. Filters were oriented such that the apical surface of cell monolayers faced the upstream chamber. Flow through cell monolayers was a function of the pressure gradient between the upstream and downstream compartments of the chamber. Pressure in the upstream compartment was generated by an elevated reservoir of HEPES-DMEM, with pressure recorded using a pressure transducer (AH 60-3002; Harvard Apparatus, Holliston, Mass.), while the downstream compartment was vented to atmospheric pressure. The rate of fluid flow through the chamber was calculated from the weight change per unit time of the reservoir measured using an isometric transducer (AH 60-2994; Harvard Apparatus). Pressure and weight data were recorded simultaneously at 30 times/sec onto hard drive of computer using a Data Acquisition System (MP100WSW; Biopac Systems, Inc., Santa Barbara, Calif.).
# as §3, with “values. […] The medium in the upstream chamber was then exchanged with […] HEPES-DMEM at a rate of 2.5 ml/min, and a second 10-minute baseline period was measured.” for “values.”
# Hydraulic conductivity was measured continuously and TEER measurements were then taken every five minutes for the duration of the trial.
# [5] = system: SC cell monolayers (cell margins)
# Protocol: as §1
# [6] = system: MDCK cell monolayers (cell borders); settings: by 60 seconds after Na2EDTA, data not shown
# Protocol: as §4
compound,measurement,setting,value
O=C([O-])CN(CCN(CC(=O)[O-])CC(=O)O)CC(=O)O.[Na+].[Na+] [Na2EDTA],time required for functional return after washout of Na2EDTA,"[1]; SC monolayers, functionally via TEER measurements",2 h
same,change in TEER decrease relative to 30-minute baseline in presence of pressure (paired t-test),"[1]; SC, 5 mM Na2EDTA",no significant change
same,average rate of TEER decrease after Na2EDTA treatment,"[1]; SC, 5 mM Na2EDTA for 5 min, 4-6 mm Hg, n=5, +/- SEM",0.34 (+/−0.26 SEM) Ωcm^2/min
same,average rate of change of TEER following rinse with normal medium,"[1]; SC, after 5 mM Na2EDTA for 5 min",not significantly different from pre-Na2EDTA rates
same,average rate of TEER decrease after Na2EDTA treatment,"MDCK cell monolayers [2]; 25 mM Na2EDTA for 5 min, 14-16 mm Hg, n=4, +/- SEM",1.9 (+/−0.12 SEM) Ωcm^2/min
same,change in TEER relative to baseline in presence of pressure (paired t-test),"MDCK cell monolayers [2]; 25 mM Na2EDTA, p=0.06",approached significance
same,average rate of change of TEER following rinse with normal medium,MDCK cell monolayers [2]; after 25 mM Na2EDTA for 5 min,not significantly different from pre-Na2EDTA rates
same,impact of lower concentrations on HC or TEER,"[3]; SC monolayers, 0.5-2 mM Na2EDTA, n=6",not to impact significantly
same,minimum Na2EDTA needed to effect both hydraulic conductivity and TEER,"[3]; SC monolayers, titration experiments, time course of the experiments, n=13-15, data not shown",5 mM
same,percent change in HC relative to baseline following Na2EDTA treatment versus percent change between the two baseline measurements,"[3]; SC, paired t-test, p<0.05",significantly greater
same,percent change in HC relative to baseline following post-Na2EDTA rinse versus percent change between the two baseline measurements,"[3]; SC, paired t-test, p<0.05",significantly greater
same,recovery of TEER and hydraulic conductivity shortly after washout of Na2EDTA,"MDCK cell monolayers [4]; MDCK cell monolayers, perfusion experiments",partial recovery
same,minimum Na2EDTA required to effect both hydraulic conductivity and TEER,"MDCK cell monolayers [4]; MDCK cell monolayers, titration experiments, time course of the experiments, n=13-15, data not shown",25 mM
same,percent change in HC relative to baseline following post-Na2EDTA rinse versus percent change between the two baseline measurements,"MDCK cell monolayers [4]; MDCK, paired t-test",not
same,percent change in HC relative to baseline following Na2EDTA treatment versus percent change between the two baseline measurements,"MDCK cell monolayers [4]; MDCK, paired t-test, p<0.05",significantly greater
same,time required for cell margins to return to original position / cell-cell contacts to return visually after replacement of normal medium,"[5]; 10 mM Na2EDTA for 5 minutes, then normal medium, data not shown",about 30 minutes
same,retraction of cell margins from each other,[5]; 60 seconds after addition of 10 mM Na2EDTA,about 2 μm
same,retraction of cell margins from each other,[5]; 90 seconds after addition of 10 mM Na2EDTA,about 3 μm
same,effect on cell borders,[6],retracted
